Each structure is given as a SMILES string.

The test system of one series is Monochoria vaginalis. The experiment in a line: Weed control effect evaluation in rice field. Type of series: in vivo. To be noted: 1000 g/ha, paddy water application at 0.5 leaf stage, 14 days after treatment, weeds resistant to pyrazosulfuron-ethyl and penoxsulam. An excerpt:
(§1) The activity level standard of harmful plants destruction (i. e. growth inhibition rate) is as follows: • Level 5: the growth inhibition rate is greater than 85%; • Level 4: the growth inhibition rate is equal to or greater than 60% and less than 85%; • Level 3: the growth inhibition rate is equal to or greater than 40% and less than 60%; • Level 2: the growth inhibition rate is equal to or greater than 20% and less than 40%; • Level 1: the growth inhibition rate is equal to or greater than 5% and less than 20%; • Level 0: the growth inhibition rate is less than 5%;
(§2) Transplanted rice safety evaluation and weed control effect evaluation in rice field:
Rice field soil was loaded into a 1/1,000,000 ha pot. The seeds of Monochoria vaginalis were sowed and gently covered with soil, then left to stand still in greenhouse in the state of 0.5-1 cm of water storage. It was kept at 3-4 cm of water storage thereafter. The weeds were treated by dripping the WP or SC water diluents prepared according to the common preparation method of the compounds of the present invention with pipette homogeneously to achieve specified effective amount when Monochoria vaginalis reached 0. 5 leaf stage.
(§3) The fertility condition of Monochoria vaginalis 14 days and rice 21 days after the treatment of the compound of the invention with the naked eye.
Note: The seeds of Monochoria vaginalis were collected from Heilongjing Province of China.
As for `CC(Oc1nc(F)c(Cl)c(N)c1Cl)C(=O)SC1CCCCC1` (stereo not drawn) [Compound 82], the “Monochoria Vaginalis, activity standard level 0-5” value is given as 5 (Level 5: the growth inhibition rate is greater than 85%).
For the compound `CC(Oc1nc(F)c(Cl)c(N)c1Cl)C(=O)SCCCC(F)(F)F` (stereo not drawn) [Compound 79], the “Monochoria Vaginalis, activity standard level 0-5” value is 5 (Level 5: the growth inhibition rate is greater than 85%).
Turning to `CSC(=O)C(C)Oc1nc(F)c(C)c(N)c1C` (stereo not drawn) [Compound 7], the “Monochoria Vaginalis, activity standard level 0-5” value is listed as 5 (Level 5: the growth inhibition rate is greater than 85%).

The next series deals with Monochoria vaginalis. The experiment in a line: Post-emergence test experiment (Table 3, 1000 g/ha). Format: in vivo. To be noted: post-emergence spray, after 3 weeks, fresh weight inhibition. In a few lines: (§4)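 Activity graded levels 0-5 by fresh-weight inhibition (level 5 above 85%, level 0 below 5%), assessed 3 weeks after treatment. Plants grown in greenhouse pots were sprayed post-emergence at 2-3 leaves using acetone/tween-80 solutions with methyl oleate synergist (1.5 L/ha).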
`CC(Oc1nc(F)c(Cl)c(N)c1Cl)C(=O)SC1CCCCC1` (stereo not drawn) [Compound 82]: the “Activity level (growth inhibition rate) Monochoria Vaginalis” value is given as 5 (Level 5: the growth inhibition rate is greater than 85%).
For `CC(Oc1nc(F)c(Cl)c(N)c1Cl)C(=O)SCCCC(F)(F)F` (stereo not drawn) [Compound 79], the “Activity level (growth inhibition rate) Monochoria Vaginalis” value is 5 (Level 5: the growth inhibition rate is greater than 85%).
With `CSC(=O)C(C)Oc1nc(F)c(C)c(N)c1C` (stereo not drawn) [Compound 7], the “Activity level (growth inhibition rate) Monochoria Vaginalis” value is 5 (Level 5: the growth inhibition rate is greater than 85%).

The subject of another series is Digitaria sanguinalis. Described as above. Format: in vivo. To be noted: post-emergence spray, after 3 weeks, fresh weight inhibition. In a few lines:
as §4
As to `CC(Oc1nc(F)c(Cl)c(N)c1Cl)C(=O)SC1CCCCC1` (stereo not drawn) [Compound 82], the “Activity level (growth inhibition rate) Digitaria sanguinalis” value is given as 5 (Level 5: the growth inhibition rate is greater than 85%).
Consider `CC(Oc1nc(F)c(Cl)c(N)c1Cl)C(=O)SCCCC(F)(F)F` (stereo not drawn) [Compound 79], for which the “Activity level (growth inhibition rate) Digitaria sanguinalis” value is recorded as 5 (Level 5: the growth inhibition rate is greater than 85%).
Take `CSC(=O)C(C)Oc1nc(F)c(C)c(N)c1C` (stereo not drawn) [Compound 7]: the “Activity level (growth inhibition rate) Digitaria sanguinalis” value is 5 (Level 5: the growth inhibition rate is greater than 85%).

Another series concerns Setaria viridis. The description is as above. Type of series: in vivo. To be noted: post-emergence spray, after 3 weeks, fresh weight inhibition. The method, boiled down:
as §4
In the case of `CC(Oc1nc(F)c(Cl)c(N)c1Cl)C(=O)SC1CCCCC1` (stereo not drawn) [Compound 82], the “Activity level (growth inhibition rate) Setaria viridis” value was 5 (Level 5: the growth inhibition rate is greater than 85%).
As to `CC(Oc1nc(F)c(Cl)c(N)c1Cl)C(=O)SCCCC(F)(F)F` (stereo not drawn) [Compound 79], the “Activity level (growth inhibition rate) Setaria viridis” value is 5 (Level 5: the growth inhibition rate is greater than 85%).
The same measure, in the same setting: in the case of `CSC(=O)C(C)Oc1nc(F)c(C)c(N)c1C` (stereo not drawn) [Compound 7] it was 5 (Level 5: the growth inhibition rate is greater than 85%).

The subject of another series is Abutilon theophrasti. Described as above. Format: in vivo. To be noted: post-emergence spray, after 3 weeks, fresh weight inhibition. The method, boiled down:
as §4
For `CC(Oc1nc(F)c(Cl)c(N)c1Cl)C(=O)SC1CCCCC1` (stereo not drawn) [Compound 82], the “Activity level (growth inhibition rate) Abutilon theophrasti” value is on record as 5 (Level 5: the growth inhibition rate is greater than 85%).
Take `CC(Oc1nc(F)c(Cl)c(N)c1Cl)C(=O)SCCCC(F)(F)F` (stereo not drawn) [Compound 79]: the “Activity level (growth inhibition rate) Abutilon theophrasti” value was 5 (Level 5: the growth inhibition rate is greater than 85%).
Consider `CSC(=O)C(C)Oc1nc(F)c(C)c(N)c1C` (stereo not drawn) [Compound 7], for which the “Activity level (growth inhibition rate) Abutilon theophrasti” value is reported as 5 (Level 5: the growth inhibition rate is greater than 85%).

The next series concerns Galium spurium. The description is as above. Type of series: in vivo. The following applies: post-emergence spray, after 3 weeks, fresh weight inhibition. The method, boiled down:
as §4
With `CC(Oc1nc(F)c(Cl)c(N)c1Cl)C(=O)SC1CCCCC1` (stereo not drawn) [Compound 82], the “Activity level (growth inhibition rate) Galium spurium” value is 5 (Level 5: the growth inhibition rate is greater than 85%).
In the case of `CC(Oc1nc(F)c(Cl)c(N)c1Cl)C(=O)SCCCC(F)(F)F` (stereo not drawn) [Compound 79], the “Activity level (growth inhibition rate) Galium spurium” value was 5 (Level 5: the growth inhibition rate is greater than 85%).
Consider `CSC(=O)C(C)Oc1nc(F)c(C)c(N)c1C` (stereo not drawn) [Compound 7], for which the “Activity level (growth inhibition rate) Galium spurium” value is recorded as 5 (Level 5: the growth inhibition rate is greater than 85%).

A further series has as its system Leptochloa chinensis. The series is described as above. Format: in vivo. The following applies: post-emergence spray, after 3 weeks, fresh weight inhibition. In a few lines:
as §4
Turning to `CC(Oc1nc(F)c(Cl)c(N)c1Cl)C(=O)SC1CCCCC1` (stereo not drawn) [Compound 82], the “Activity level (growth inhibition rate) Leptochloa chinensis” value is on record as 5 (Level 5: the growth inhibition rate is greater than 85%).
Regarding `CC(Oc1nc(F)c(Cl)c(N)c1Cl)C(=O)SCCCC(F)(F)F` (stereo not drawn) [Compound 79], the “Activity level (growth inhibition rate) Leptochloa chinensis” value is listed as 5 (Level 5: the growth inhibition rate is greater than 85%).
Turning to `CSC(=O)C(C)Oc1nc(F)c(C)c(N)c1C` (stereo not drawn) [Compound 7], the “Activity level (growth inhibition rate) Leptochloa chinensis” value is on record as 5 (Level 5: the growth inhibition rate is greater than 85%).

The subject of the next series is ALS resistant Echinochloa crusgalli. The experiment in a line: Post-emergence test experiment (Table 4), weed control. Type of series: in vivo. To be noted: 600 g/ha active ingredient, plus water 450 kg/ha, after 3 weeks.
Excerpt: as §1
(§5) The above described growth inhibition rate is fresh weight inhibition rate.
(§6) Post-emergence test experiment: Monocotyledonous and dicotyledonous weed seeds and main crop seeds (i. e. wheat, corn, rice, soybean, cotton, oilseed, millet and sorghum.) were put into a plastic pot loaded with soil. Then covered with 0.5-2 cm soil, the seeds were allowed to grow in good greenhouse environment. The test plants were treated at 2-3 leaf stage 2 weeks after sowing. The test compounds of the invention were dissolved with acetone respectively, then added with tween-80, and using 1.5 liters per hectare of an emulsible concentrate of methyl oleate as a synergist, and diluted by certain amount of water to certain concentration. The solution was sprayed to the plants with a sprayer. Then the plants were cultured for 3 weeks in the greenhouse, and the experiment result of weed controlling effect after 3 weeks was listed in tables 3-4.
(§7) […] Echinochloa crusgalli and Cyperus iria were collected from Ningxia Hui Autonomous Region of China, which had evolved resistance to ALS inhibiting herbicides. • Control compound A:
Turning to `CC(Oc1nc(F)c(Cl)c(N)c1Cl)C(=O)SC1CCCCC1` (stereo not drawn) [Compound 82], the “ALS resistant Echinochloa crusgalli, activity level (growth inhibition rate)” value is 5 (Level 5: the growth inhibition rate is greater than 85%).
Regarding `CC(Oc1nc(F)c(Cl)c(N)c1Cl)C(=O)SCCCC(F)(F)F` (stereo not drawn) [Compound 79], the “ALS resistant Echinochloa crusgalli, activity level (growth inhibition rate)” value is recorded as 5 (Level 5: the growth inhibition rate is greater than 85%).
As to `CSC(=O)C(C)Oc1nc(F)c(C)c(N)c1C` (stereo not drawn) [Compound 7], the “ALS resistant Echinochloa crusgalli, activity level (growth inhibition rate)” value is listed as 5 (Level 5: the growth inhibition rate is greater than 85%).

For a further series, the system named is ALS resistant Cyperus iria. Described as above. Type of series: in vivo. To be noted: 600 g/ha active ingredient, plus water 450 kg/ha, after 3 weeks.
Excerpt: as §1, §5, §6, §7
As for `CC(Oc1nc(F)c(Cl)c(N)c1Cl)C(=O)SC1CCCCC1` (stereo not drawn) [Compound 82], the “ALS resistant Cyperus iria, activity level (growth inhibition rate)” value is given as 5 (Level 5: the growth inhibition rate is greater than 85%).
The same measure, in the same setting: with `CC(Oc1nc(F)c(Cl)c(N)c1Cl)C(=O)SCCCC(F)(F)F` (stereo not drawn) [Compound 79] the figure was 5 (Level 5: the growth inhibition rate is greater than 85%); with `CSC(=O)C(C)Oc1nc(F)c(C)c(N)c1C` (stereo not drawn) [Compound 7], 5 (Level 5: the growth inhibition rate is greater than 85%).

In another series the test system is rice (japonica rice). The experiment in a line: Transplanted rice safety evaluation. Format: in vivo. The following applies: 1000 g/ha, transplanted 3-leaf stage japonica rice, treated 5 days after transplantation, 21 days after treatment.
Excerpt: as §1, §2
In addition, the rice field soil that loaded into the 1/1,000,000 ha pot was leveled to keep water storage at 3-4 cm depth. The 3-leaf stage rice (japonica rice) was transplanted at 3 cm of transplanting depth the next day. The compound of the present invention was treated by the same way after 5 days of transplantation.
as §3
With `CC(Oc1nc(F)c(Cl)c(N)c1Cl)C(=O)SC1CCCCC1` (stereo not drawn) [Compound 82], the “Rice, activity standard level 0-5 (safety)” value is 0 (Level 0: the growth inhibition rate is less than 5%).
As to `CC(Oc1nc(F)c(Cl)c(N)c1Cl)C(=O)SCCCC(F)(F)F` (stereo not drawn) [Compound 79], the “Rice, activity standard level 0-5 (safety)” value is 0 (Level 0: the growth inhibition rate is less than 5%).
On the same count and under the same terms, with `CSC(=O)C(C)Oc1nc(F)c(C)c(N)c1C` (stereo not drawn) [Compound 7] the figure was 0 (Level 0: the growth inhibition rate is less than 5%).

Another series deals with Japonica rice. The experiment in a line: Post-emergence test experiment (Table 4), crop safety. Format: in vivo. To be noted: 600 g/ha active ingredient, plus water 450 kg/ha, after 3 weeks.
Excerpt: as §1, §5, §6, §7
Turning to `CC(Oc1nc(F)c(Cl)c(N)c1Cl)C(=O)SC1CCCCC1` (stereo not drawn) [Compound 82], the “Japonica rice, activity level (growth inhibition rate)” value is recorded as 0 (Level 0: the growth inhibition rate is less than 5%).
As to `CC(Oc1nc(F)c(Cl)c(N)c1Cl)C(=O)SCCCC(F)(F)F` (stereo not drawn) [Compound 79], the “Japonica rice, activity level (growth inhibition rate)” value is 0 (Level 0: the growth inhibition rate is less than 5%).
Same read-out and setting: in the case of `CSC(=O)C(C)Oc1nc(F)c(C)c(N)c1C` (stereo not drawn) [Compound 7] it was 0 (Level 0: the growth inhibition rate is less than 5%).

In a further series the test system is Indica rice. The description is as above. Format: in vivo. To be noted: 600 g/ha active ingredient, plus water 450 kg/ha, after 3 weeks.
Excerpt: as §1, §5, §6, §7
Consider `CC(Oc1nc(F)c(Cl)c(N)c1Cl)C(=O)SC1CCCCC1` (stereo not drawn) [Compound 82], for which the “Indica rice, activity level (growth inhibition rate)” value is 0 (Level 0: the growth inhibition rate is less than 5%).
Take `CC(Oc1nc(F)c(Cl)c(N)c1Cl)C(=O)SCCCC(F)(F)F` (stereo not drawn) [Compound 79]: the “Indica rice, activity level (growth inhibition rate)” value is given as 0 (Level 0: the growth inhibition rate is less than 5%).
Regarding `CSC(=O)C(C)Oc1nc(F)c(C)c(N)c1C` (stereo not drawn) [Compound 7], the “Indica rice, activity level (growth inhibition rate)” value is 0 (Level 0: the growth inhibition rate is less than 5%).

Values taken from patent publication US12391648B2, “Pyridyloxy thioester derivative and preparation method therefor, herbicidal composition, and application” (Qingdao Kingagroot Chemical Compound Co., Ltd., priority 2018, dated 2025).
